Reference: paper PMC6385875 (Inorganica chimica acta, 2018)

Assay: In vitro integrity of tracers in buffer at physiological pH by HPLC
Format: physicochemical
Conditions: incubated at physiological pH for up to 6 h

## ^99mTc(CO)3(PMIDA) [^99mTc-1]
  in vitro stability (decomposition by HPLC): No measurable decomposition
